Data as given in PMC7419507, “In vitro Cas9-assisted editing of modular polyketide synthase genes to produce desired natural product derivatives” (Nature Communications, 2020).

Test: Stability of the compound during isolation
Format: physicochemical
Conditions: isolation from culture
From the text: Authors' possible answers (A) to the comments (C) raised by Reviewer #2.
This manuscript by Kudo et al. describes the combined application of in vitro CRIPS-Cas9 and Gibson assembly technology to edit type 1 modular PKSs. Authors […]
module deletion/insertion, reductive domains, stereochemistry of beta-hydroxyl group, and double modification (ER and KR) using rapamycin PKS as a model system. Although in vitro CIRPR/Cas9 system for refactoring of biosynthetic gene clusters in Streptomyces has been reported previously (mBio 6(6):e01714-15), this manuscript may be the first report to use CIRPR/Cas9 technology to edit the large modular PKSs.
We thank Reviewer #2 for the positive evaluation of our technology. Since the engineering […]
(C-1) Although the method used in this study seems promising to edit PKS efficiently, authors should present the complete structural data (e.g. 1D and 2D NMR) of all […]
(A-1) We have added NMR data for compounds 10, 11 , 12, 13, 15 and 16, whose yields were high enough allow their analysis by NMR. In addition, we confirmed the quantitative analysis of all compounds (Supplementary Table 3). […]
smaller m/z than that of 5 (Figs. A(d) and (e)). Multiple degradation products were detected (Fig. B) and those peaks were not detectable from crude extract before isolation.
We measured a NMR spectrum of the collected sample (ca 0.8 mg), however, the sample […]

Stability during isolation, in words	SMILES
instability	CO[C@H]1C[C@@H]2CC[C@@H](C)[C@@](O)(O2)C(=O)C(=O)N2CCCC[C@H]2C(=O)O[C@H]([C@H](C)C[C@@H]2CC[C@@H](O)[C@H](OC)C2)CC(=O)[C@H](C)/C=C(\C)[C@@H](O)[C@@H](OC)C(=O)[C@H](C)CC/C=C/C=C/C=C/1C [Compound 5, 23-demethyl rapamycin]
so unstable that we could not isolate it	CO[C@@H]1C[C@H](C[C@@H](C)[C@@H]2CC(=O)[C@H](C)/C=C(\C)[C@@H](O)CC(=O)[C@H](C)/C=C(C)/C=C/C=C/C=C(\C)[C@H](O)C[C@@H]3CC[C@@H](C)[C@@](O)(O3)C(=O)C(=O)N3CCCC[C@H]3C(=O)O2)CC[C@H]1O [Compound 19, 27-demethoxy-16-O-demethyl-23,24-didehydro-rapamycin]
